# Read-outs that look alike come from different tables or passages of the source.
# Assays:
# [1] = target: human TLR8 (Homo sapiens (Human), UniProt Q9NR97); assay: TLR8 inhibition reporter assay (HEK-Blue cells, SEAP reporter, R848 stimulation);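 further: compounds tested from 0.05 nM to 50 µM, 22 h at 37 °C, SEAP measured with HEK-Blue Detection, inhibition relative to agonist plus DMSO versus a known inhibitor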
# Method: TLR7/8/9 Inhibition Reporter Assays
# Briefly, cells are seeded into Greiner 384 well plates (15000 cells per well for TLR7, 20,000 for TLR8 and 25,000 for TLR9) and then treated with test compounds in DMSO to yield a final dose response concentration range of 0.05 nM-50 μM. […] After a 22 hour incubation at 37° C., 5% CO2, SEAP levels are determined with the addition of HEK-Blue™ Detection reagent (Invivogen), a cell culture medium that allows for detection of SEAP, according to manufacturer's specifications. The percent inhibition is determined as the % reduction in the HEK-Blue signal present in wells treated with agonist plus DMSO alone compared to wells treated with a known inhibitor.
# [2] = target: human TLR9 (Homo sapiens (Human), UniProt Q9NR96); assay: TLR9 inhibition reporter assay (HEK-Blue cells, SEAP reporter, ODN2006 stimulation);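 further: compounds tested over 0.05 nM to 50 µM, 22 h incubation, inhibition taken as SEAP signal drop from agonist plus DMSO wells toward a known inhibitor control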
# [3] = target: human TLR7 (Homo sapiens (Human), UniProt Q9NYK1); assay: TLR7 inhibition reporter assay (HEK-Blue cells, SEAP reporter, gardiquimod stimulation); format: cell-based
# [4] = read-out: TLR8 IC50, HEK-Blue cells overexpressing human TLR8, R848 15.9 μM
# [5] = read-out: TLR9 IC50, HEK-Blue cells overexpressing human TLR9, ODN2006 5 nM
# [6] = HEK-Blue cells overexpressing human TLR7, gardiquimod 7.5 μM
# [7] = TLR8 IC50, HEK-Blue cells overexpressing human TLR8, R848 15.9 μM
# [8] = TLR9 IC50, HEK-Blue cells overexpressing human TLR9, ODN2006 5 nM
# [9] = HEK-Blue cells, gardiquimod 7.5 μM
# Chain of human TLR9 (Q9NR96 26-1032): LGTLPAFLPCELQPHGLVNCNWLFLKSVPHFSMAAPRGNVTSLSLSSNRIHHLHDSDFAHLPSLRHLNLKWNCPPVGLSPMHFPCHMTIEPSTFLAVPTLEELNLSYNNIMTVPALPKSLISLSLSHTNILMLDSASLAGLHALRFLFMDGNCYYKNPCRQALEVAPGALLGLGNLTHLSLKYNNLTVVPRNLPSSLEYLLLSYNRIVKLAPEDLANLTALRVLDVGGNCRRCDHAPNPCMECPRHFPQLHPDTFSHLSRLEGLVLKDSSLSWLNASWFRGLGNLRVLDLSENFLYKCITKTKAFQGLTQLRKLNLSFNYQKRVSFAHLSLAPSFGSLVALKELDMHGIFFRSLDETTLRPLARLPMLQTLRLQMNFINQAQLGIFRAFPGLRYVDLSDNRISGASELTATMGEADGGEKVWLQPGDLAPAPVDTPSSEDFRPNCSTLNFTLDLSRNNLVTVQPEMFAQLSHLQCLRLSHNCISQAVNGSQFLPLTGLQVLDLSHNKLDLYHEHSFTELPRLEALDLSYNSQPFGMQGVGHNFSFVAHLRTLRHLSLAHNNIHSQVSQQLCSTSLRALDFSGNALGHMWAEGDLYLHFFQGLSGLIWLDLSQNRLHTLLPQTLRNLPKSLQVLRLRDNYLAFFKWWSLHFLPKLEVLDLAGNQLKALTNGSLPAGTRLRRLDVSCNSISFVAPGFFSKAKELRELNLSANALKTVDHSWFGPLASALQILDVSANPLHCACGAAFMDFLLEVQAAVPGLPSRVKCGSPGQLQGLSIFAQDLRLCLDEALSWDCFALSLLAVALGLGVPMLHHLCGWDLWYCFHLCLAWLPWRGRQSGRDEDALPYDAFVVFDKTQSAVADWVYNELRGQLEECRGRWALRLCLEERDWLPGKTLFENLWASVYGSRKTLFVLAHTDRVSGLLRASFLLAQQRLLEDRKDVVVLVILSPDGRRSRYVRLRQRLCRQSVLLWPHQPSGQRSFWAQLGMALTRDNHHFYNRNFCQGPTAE
# Chain of human TLR8 (Q9NR97 27-1041): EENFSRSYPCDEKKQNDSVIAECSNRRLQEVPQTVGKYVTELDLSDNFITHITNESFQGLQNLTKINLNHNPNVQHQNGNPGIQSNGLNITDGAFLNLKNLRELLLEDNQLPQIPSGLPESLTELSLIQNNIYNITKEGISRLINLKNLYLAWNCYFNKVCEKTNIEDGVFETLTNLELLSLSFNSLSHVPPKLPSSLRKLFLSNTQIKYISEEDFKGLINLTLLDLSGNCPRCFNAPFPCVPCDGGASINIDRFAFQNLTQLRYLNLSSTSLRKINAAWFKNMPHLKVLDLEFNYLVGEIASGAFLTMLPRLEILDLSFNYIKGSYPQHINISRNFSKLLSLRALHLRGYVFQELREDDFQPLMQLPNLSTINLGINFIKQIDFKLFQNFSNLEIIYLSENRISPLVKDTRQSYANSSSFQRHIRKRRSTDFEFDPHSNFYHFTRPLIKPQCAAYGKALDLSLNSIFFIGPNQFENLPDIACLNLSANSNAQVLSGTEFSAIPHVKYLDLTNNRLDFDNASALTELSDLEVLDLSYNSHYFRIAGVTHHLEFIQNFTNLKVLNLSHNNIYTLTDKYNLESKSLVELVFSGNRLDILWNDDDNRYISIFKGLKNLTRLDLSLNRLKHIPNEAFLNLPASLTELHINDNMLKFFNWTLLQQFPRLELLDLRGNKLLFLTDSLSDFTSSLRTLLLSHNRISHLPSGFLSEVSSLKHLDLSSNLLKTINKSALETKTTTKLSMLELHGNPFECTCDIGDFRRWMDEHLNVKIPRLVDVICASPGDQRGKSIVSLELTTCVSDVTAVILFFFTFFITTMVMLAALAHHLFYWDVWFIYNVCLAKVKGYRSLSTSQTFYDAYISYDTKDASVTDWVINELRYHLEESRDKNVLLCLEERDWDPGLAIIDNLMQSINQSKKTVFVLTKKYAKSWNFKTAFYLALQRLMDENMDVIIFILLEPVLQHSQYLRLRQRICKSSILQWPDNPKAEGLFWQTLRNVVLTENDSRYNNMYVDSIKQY
# Chain of human TLR7 (Q9NYK1 27-1049): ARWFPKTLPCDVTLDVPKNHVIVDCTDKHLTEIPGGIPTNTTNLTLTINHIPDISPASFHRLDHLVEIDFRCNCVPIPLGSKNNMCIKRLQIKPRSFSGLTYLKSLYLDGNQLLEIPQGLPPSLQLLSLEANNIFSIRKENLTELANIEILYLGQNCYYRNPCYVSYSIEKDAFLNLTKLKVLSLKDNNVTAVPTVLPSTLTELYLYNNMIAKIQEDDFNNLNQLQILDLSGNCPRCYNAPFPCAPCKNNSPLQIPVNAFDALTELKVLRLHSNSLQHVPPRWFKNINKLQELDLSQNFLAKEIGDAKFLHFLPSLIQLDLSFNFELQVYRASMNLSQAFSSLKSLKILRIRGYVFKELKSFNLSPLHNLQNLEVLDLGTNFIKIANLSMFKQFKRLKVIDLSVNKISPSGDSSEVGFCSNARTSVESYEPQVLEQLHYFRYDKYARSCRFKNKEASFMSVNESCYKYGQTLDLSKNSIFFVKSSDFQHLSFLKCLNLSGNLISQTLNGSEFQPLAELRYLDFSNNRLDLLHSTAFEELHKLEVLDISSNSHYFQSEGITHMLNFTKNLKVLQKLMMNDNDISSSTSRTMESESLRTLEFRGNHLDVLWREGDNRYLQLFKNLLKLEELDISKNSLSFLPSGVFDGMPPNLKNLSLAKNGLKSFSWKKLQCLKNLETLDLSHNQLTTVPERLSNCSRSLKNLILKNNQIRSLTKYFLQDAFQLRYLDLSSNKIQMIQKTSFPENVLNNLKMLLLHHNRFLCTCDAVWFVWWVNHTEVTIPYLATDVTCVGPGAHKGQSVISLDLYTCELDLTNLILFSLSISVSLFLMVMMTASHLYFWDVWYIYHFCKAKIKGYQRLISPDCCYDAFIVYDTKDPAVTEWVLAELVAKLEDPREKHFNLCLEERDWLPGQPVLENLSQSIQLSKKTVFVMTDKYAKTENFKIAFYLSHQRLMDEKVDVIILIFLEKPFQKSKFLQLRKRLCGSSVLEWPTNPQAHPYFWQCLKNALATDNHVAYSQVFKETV
SMILES,"IC50 [1, 4] [nM]","IC50 [2, 5] [nM]","IC50 [3, 6] [nM]",further results
"CCc1c(-c2ccnc(C)c2)[nH]c2c(F)cc(C3CCNCC3)cc12 [Example 81, 3-ethyl-7-fluoro-2-(2-methylpyridin-4-yl)-5-(piperidin-4-yl)-1H-indole]",907,696,614,–
"COC(=O)N1CCC(c2ccc3[nH]c(-c4ccnc(C)c4)c(C(C)C)c3c2)CC1 [Example 562, methyl 4-(3-isopropyl-2-(2-methylpyridin-4-yl)-1H-indol-5-yl) piperidine-1-carboxylate]",1400,> 50000,287,–
"CCc1c(-c2ccnc(OC(C)C)c2)[nH]c2ccc(C3CCN(C4CCN(CC(C)C)CC4)CC3)cc12 [Example 769, 3-ethyl-5-(1′-isobutyl-[1,4′-bipiperidin]-4-yl)-2-(2-isopropoxypyridin-4-yl)-1H-indole]",1050,1500,5380,–
"Cc1cc(-c2[nH]c3ccc(C4CCN(Cc5cnc[nH]5)CC4)cc3c2C(C)C)c(C)cn1 [Example 824, 5-(1-((1H-imidazol-5-yl)methyl)piperidin-4-yl)-2-(2,5-dimethylpyridin-4-yl)-3-isopropyl-1H-indole]",–,–,–,"IC50 ([1]; TLR8 IC50, HEK-Blue cells, R848 15.9 μM): 1.2 nM; IC50 ([2]; TLR9 IC50, HEK-Blue cells, ODN2006 5 nM): 729 nM; IC50 [3, 9]: 13.8 nM"
"CCc1c(-c2ccnc(Cl)c2)[nH]c2ccc(C3CCNCC3)cc12 [Example 62, 2-(2-chloropyridin-4-yl)-3-ethyl-5-(piperidin-4-yl)-1H-indole]",19.4,2100,22,–
"Cc1cc(-c2[nH]c3ccc(C4CCN(Cc5ncon5)CC4)cc3c2C(C)C)c(C)cn1 [Example 734, 3-((4-(2-(2,5-dimethylpyridin-4-yl)-3-isopropyl-1H-indol-5-yl)piperidin-1-yl)methyl)-1,2,4-oxadiazole]",6.8,8990,13.8,–
"Cc1cc(-c2[nH]c3ccc(C4CCN(C(=O)OCC(C)C)CC4)cc3c2C(C)C)ccn1 [Example 558, isobutyl 4-(3-isopropyl-2-(2-methylpyridin-4-yl)-1H-indol-5-yl)piperidine-1-carboxylate]",1840,15000,3400,–
"Cc1cc(-c2[nH]c3ccc(C4CCN(Cc5ccccc5)CC4)cc3c2C(C)C)cc(C)n1 [Example 318, 5-(1-benzylpiperidin-4-yl)-2-(2,6-dimethylpyridin-4-yl)-3-isopropyl-1H-indole]",12.6,779,25.4,–
"Cc1cc(-c2[nH]c3ccc(C4CCN(Cc5cc(C)on5)CC4)cc3c2C(C)C)c(F)cn1 [Example 686, 3-((4-(2-(5-fluoro-2-methylpyridin-4-yl)-3-isopropyl-1H-indol-5-yl)piperidin-1-yl)methyl)-5-methylisoxazole]",4.1,9450,35.2,–
"Cc1cc(-c2[nH]c3ccc(C4CCN(CC5COC5)CC4)cc3c2C(C)C)c(F)cn1 [Example 646, 2-(5-fluoro-2-methylpyridin-4-yl)-3-isopropyl-5-(1-(oxetan-3-ylmethyl)piperidin-4-yl)-1H-indole]",4.8,5850,12,–
"Cc1cc(-c2[nH]c3ccc(C4CCN(C5CCN(CC(C)C)CC5)CC4)cc3c2C)ccn1 [Example 810, 5-(1′-isobutyl-[1,4′-bipiperidin]-4-yl)-3-methyl-2-(2-methylpyridin-4-yl)-1H-indole]",–,–,–,"IC50 ([1]; read-out: TLR8 IC50, HEK-Blue cells, R848 15.9 μM): 16.2 nM; IC50 ([2]; read-out: TLR9 IC50, HEK-Blue cells, ODN2006 5 nM): 19 nM; IC50 [3, 9]: 145 nM"

# Further lines, with some results ahead:
"IC50 [1, 4] [nM]","IC50 [2, 5] [nM]","IC50 [3, 6] [nM]",SMILES,further results
73.7,> 50000,11.7,"Cc1cc(-c2[nH]c3ccc(C4CCN(C(=O)CN5C[C@@H](O)CC5=O)CC4)cc3c2C(C)C)cc(C)n1 [Example 169, (S)-1-(2-(4-(2-(2,6-dimethylpyridin-4-yl)-3-isopropyl-1H-indol-5-yl)piperidin-1-yl)-2-oxoethyl)-4-hydroxypyrrolidin-2-one]",–
81.8,813,17.4,"CNC(=O)CN1CCC(c2ccc3[nH]c(-c4cc(C)nc(C)c4)c(CC(F)F)c3c2)CC1 [Example 532, 2-(4-(3-(2,2-difluoroethyl)-2-(2,6-dimethylpyridin-4-yl)-1H-indol-5-yl)piperidin-1-yl)-N-methylacetamide]",–
2.3,210,5.3,"Cc1cc(-c2[nH]c3ccc(C4CCN(Cc5cnn(C)c5)CC4)cc3c2C(C)C)cc(C)n1 [Example 440, 2-(2,6-dimethylpyridin-4-yl)-3-isopropyl-5-(1-((1-methyl-1H-pyrazol-4-yl)methyl)piperidin-4-yl)-1H-indole]",–
83.3,311,39,"CCc1c(-c2ccnc(C)c2)[nH]c2ccc(C3CCN(C(=O)C4CCNC4)CC3)cc12 (stereo not drawn) [Example 633, (4-(3-ethyl-2-(2-methylpyridin-4-yl)-1H-indol-5-yl)piperidin-1-yl)(pyrrolidin-3-yl)methanone]",–
5.9,369,10.1,"COc1ncc(CN2CCC(c3ccc4[nH]c(-c5cc(C)nc(C)c5)c(C(C)C)c4c3)CC2)cn1 [Example 430, 2-(2,6-dimethylpyridin-4-yl)-3-isopropyl-5-(1-((2-methoxypyrimidin-5-yl)methyl)piperidin-4-yl)-1H-indole]",–
–,–,4.5,"Cc1cc(-c2[nH]c3ccc(C4CCN(CC(=O)N5CCCC5C)CC4)cc3c2C(C)C)cc(C)n1 (stereo not drawn) [Example 259, 2-(4-(2-(2,6-dimethylpyridin-4-yl)-3-isopropyl-1H-indol-5-yl)piperidin-1-yl)-1-(2-methylpyrrolidin-1-yl)ethan-1-one]","IC50 [1, 7]: 12.2 nM; IC50 [2, 8]: 483 nM"
223,> 50000,73.5,"Cc1cc(-c2[nH]c3ccc(C4CCN(C(=O)C5(N)COC5)CC4)cc3c2C(C)C)ccn1 [Example 634, (3-aminooxetan-3-yl)(4-(3-isopropyl-2-(2-methylpyridin-4-yl)-1H-indol-5-yl)piperidin-1-yl)methanone]",–
–,–,1.6,"Cc1cc(-c2[nH]c3ccc(C4CCN(CC(=O)N5CC[C@@H](O)C5)CC4)cc3c2C(C)C)cc(C)n1 [Example 275, (R)-2-(4-(2-(2,6-dimethylpyridin-4-yl)-3-isopropyl-1H-indol-5-yl)piperidin-1-yl)-1-(3-hydroxypyrrolidin-1-yl)ethan-1-one]","IC50 [1, 7]: 6.8 nM; IC50 [2, 8]: 67 nM"
243,12200,80.9,"Cc1cc(-c2[nH]c3ccc(C4CCN(C(=O)C(C)(C)C#N)CC4)cc3c2C(C)C)ccn1 [Example 615, 3-(4-(3-isopropyl-2-(2-methylpyridin-4-yl)-1H-indol-5-yl)piperidin-1-yl)-2,2-dimethyl-3-oxopropanenitrile]",–
–,–,5.2,"CCNC(=O)CN1CCC(c2ccc3[nH]c(-c4cc(C)nc(C)c4)c(C(C)C)c3c2)CC1 [Example 235, 2-(4-(2-(2,6-dimethylpyridin-4-yl)-3-isopropyl-1H-indol-5-yl)piperidin-1-yl)-N-ethylacetamide]","IC50 [1, 7]: 14.1 nM; IC50 [2, 8]: 965 nM"
18.6,853,6.3,"Cc1cc(-c2[nH]c3ccc(C4CCN(CC(=O)N[C@H](CO)CC(C)C)CC4)cc3c2C(C)C)cc(C)n1 [Example 276, (S)-2-(4-(2-(2,6-dimethylpyridin-4-yl)-3-isopropyl-1H-indol-5-yl)piperidin-1-yl)-N-(1-hydroxy-4-methylpentan-2-yl)acetamide]",–
